Laboratory results as given in patent US6737383B1, “Herbicidal oxadiazolidines” (priority 1999, dated 2004).

Assays:
[1] = test system: itchgrass; test: Test D itchgrass; type: in vivo, Rottboellia exaltata; settings: Preemergence, 0 to 100 scale
In short: (§1)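 Scoring used a 0–100 visual injury scale, with 0 meaning no effect and 100 complete control, assessed 14–21 days after application alongside untreated pots. Preemergence treatments went onto sandy loam surfaces of separately potted seeds within a day of sowing.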

[2] = test system: common groundsel; test: Test D common groundsel; type: in vivo, Senecio vulgaris; settings: Preemergence, 0 to 100 scale
In short: as §1

[3] = test system: goosegrass; test: Test D goosegrass; type: in vivo, Eleusine indica; settings: Preemergence, 0 to 100 scale
In short: as §1

[4] = test system: purple nutsedge; test: Test D purple nutsedge; type: in vivo, Cyperus rotundus; settings: Preemergence, 0 to 100 scale
In short: as §1

[5] = test system: large crabgrass; test: Test D large crabgrass; type: in vivo, Digitaria sanguinalis; settings: Preemergence, 0 to 100 scale
In short: as §1

[6] = test system: Spanishneedles; test: Test D Spanishneedles; type: in vivo, Bidens bipinnata; settings: Preemergence, 0 to 100 scale
In short: as §1

[7] = test system: sandbur; test: Test D sandbur; type: in vivo, Cenchrus echinatus; settings: Preemergence, 0 to 100 scale
In short: as §1

[8] = test system: common ragweed; test: Test D common ragweed; type: in vivo, Ambrosia elatior; settings: Preemergence, 0 to 100 scale
In short: as §1

[9] = test system: Green foxtail; test: Test D green foxtail; type: in vivo
In short: as §1

[10] = test system: dallisgrass; test: Test D dallisgrass; type: in vivo, Paspalum dilatatum; settings: Preemergence, 0 to 100 scale
In short: as §1

[11] = test system: Green foxtail; test: Test D green foxtail; type: in vivo; settings: Preemergence, 0 to 100 scale
In short: as §1

[12] = test system: chickweed; test: Test E chickweed; type: in vivo, Stellaria media; settings: Preemergence, Rate 250 g/ha; 0 to 100 scale
[13] = test system: Alexandergrass; test: Test D Alexandergrass; type: in vivo, Brachiaria plantaginea; settings: Preemergence, 0 to 100 scale
In short: as §1

[14] = test system: Johnson grass; test: Test D Johnson grass; type: in vivo, Sorghum halepense; settings: Preemergence, 0 to 100 scale
In short: as §1

[15] = test system: surinam grass; test: Test D surinam grass; type: in vivo, Brachiaria decumbens; settings: Preemergence, 0 to 100 scale
In short: as §1

[16] = Rate 16 g/ha, 0 no injury, 100 complete control
[17] = Rate 32 g/ha, 0 no injury, 100 complete control
[18] = Rate 64 g/ha, 0 no injury, 100 complete control
[19] = Rate 125 g/ha, 0 no injury, 100 complete control
[20] = Rate 64 g/ha, Preemergence; 0 to 100 scale, 0 no injury, 100 complete control
[21] = Rate 125 g/ha, Preemergence; 0 to 100 scale, 0 no injury, 100 complete control

C=CCn1c(=O)on(C(=O)N(c2ccc(Cl)cc2)C(C)C)c1=O [Compound 105]
30: Plant response rating, Alexandergrass [13, 17]
0: Plant response rating, Itchgrass [1, 16] | Plant response rating, Itchgrass [1, 17] | Plant response rating, Com. groundsel [2, 16] | Plant response rating, Com. groundsel [2, 17] | Plant response rating, Com. groundsel [2, 18] | Plant response rating, Com. groundsel [2, 19] | Plant response rating, Com. groundsel ([2]; Rate 250 g/ha) | Plant response rating, Purple nutsedge [4, 16] | Plant response rating, Purple nutsedge [4, 17] | Purple nutsedge plant response rating [4, 18] | Purple nutsedge plant response rating [4, 19] | Plant response rating, Purple nutsedge ([4]; Rate 250 g/ha) | Plant response rating, Spanishneedles [6, 16] | Plant response rating, Spanishneedles [6, 17] | Spanishneedles plant response rating [6, 18] | Spanishneedles plant response rating [6, 19] | Plant response rating, Spanishneedles ([6]; Rate 500 g/ha) | Plant response rating, Sandbur [7, 16] | Plant response rating, Sandbur [7, 17] | Sandbur plant response rating [7, 18] | Sandbur plant response rating [7, 19] | Plant response rating, C. ragweed [8, 16] | Plant response rating, C. ragweed [8, 17] | Plant response rating, C. ragweed [8, 18] | Plant response rating, C. ragweed [8, 19] | Plant response rating, C. ragweed ([8]; Rate 250 g/ha) | Plant response rating, C. ragweed ([8]; Rate 500 g/ha) | Plant response rating, Alexandergrass [13, 16] | Plant response rating Johnsongrass [14, 16] | Plant response rating Johnsongrass [14, 17] | Plant response rating Johnsongrass [14, 18] | Plant response rating, Surinam grass [15, 16] | Plant response rating, Surinam grass [15, 17] | Surinam grass plant response rating [15, 18]
40: Plant response rating Large crabgrass [5, 16] | Surinam grass plant response rating [15, 19]
100: Plant response rating, Goosegrass ([3]; Rate 250 g/ha) | Plant response rating, Goosegrass ([3]; Rate 500 g/ha) | Plant response rating Large crabgrass [5, 18] | Plant response rating Large crabgrass [5, 19] | Plant response rating Large crabgrass ([5]; Rate 250 g/ha) | Plant response rating Large crabgrass ([5]; Rate 500 g/ha) | Plant response rating, Sandbur ([7]; Rate 500 g/ha) | Plant response rating, Green foxtail ([9]; Rate 32 g/ha; Preemergence; 0 to 100 scale, 0 no injury, 100 complete control) | Green foxtail plant response rating [9, 20] | Plant response rating, Green foxtail [9, 20] | Green foxtail plant response rating [9, 21] | Plant response rating, Green foxtail [9, 21] | Plant response rating, Green foxtail ([9]; Rate 250 g/ha; Preemergence; 0 to 100 scale) | Plant response rating, Green foxtail ([9]; Rate 500 g/ha, Preemergence; 0 to 100 scale) | Plant response rating, Dallisgrass [10, 19] | Plant response rating, Dallisgrass ([10]; Rate 250 g/ha) | Plant response rating, Dallisgrass ([10]; Rate 500 g/ha) | Plant response rating, Green foxtail ([11]; Rate 250 g/ha) | Plant response rating, Green foxtail ([11]; Rate 500 g/ha) | Plant response rating, Alexandergrass ([13]; Rate 500 g/ha) | Plant response rating, Surinam grass ([15]; Rate 500 g/ha)
90: Plant response rating Johnsongrass ([14]; Rate 500 g/ha)
20: Plant response rating, Itchgrass [1, 18] | Plant response rating, Itchgrass [1, 19] | Plant response rating Johnsongrass [14, 19]
85: Plant response rating, Itchgrass ([1]; Rate 250 g/ha) | Plant response rating, Itchgrass ([1]; Rate 500 g/ha) | Plant response rating, Goosegrass [3, 16] | Plant response rating, Green foxtail ([9]; Preemergence; Rate 32 g/ha; 0 to 100 scale, 0 no injury, 100 complete control) | Plant response rating, Chickweed [12] | Plant response rating, Alexandergrass [13, 18]
75: Plant response rating, Purple nutsedge ([4]; Rate 500 g/ha) | Plant response rating, Green foxtail ([9]; Preemergence; Rate 16 g/ha; 0 to 100 scale, 0 no injury, 100 complete control) | Plant response rating, Green foxtail ([9]; Rate 16 g/ha; Preemergence; 0 to 100 scale, 0 no injury, 100 complete control) | Plant response rating Johnsongrass ([14]; Rate 250 g/ha)
80: Plant response rating, Com. groundsel ([2]; Rate 500 g/ha)
60: Plant response rating, Dallisgrass [10, 16]
98: Plant response rating, Goosegrass [3, 17] | Plant response rating, Goosegrass [3, 18] | Plant response rating, Goosegrass [3, 19] | Plant response rating Large crabgrass [5, 17] | Plant response rating, Sandbur ([7]; Rate 250 g/ha) | Plant response rating, Dallisgrass [10, 17] | Plant response rating, Dallisgrass [10, 18] | Plant response rating, Alexandergrass [13, 19] | Plant response rating, Alexandergrass ([13]; Rate 250 g/ha) | Plant response rating, Surinam grass ([15]; Rate 250 g/ha)
